Measured values reported in PMC4389225, “Triaminopyrimidine is a fast-killing and long-acting antimalarial clinical candidate” (Nature Communications, 2015).
Values after ≈ are worked out from the molar mass of the structure shown. Values joined by “and” are separate entries in the source; they are usually repeats but may differ in a detail not shown here. Identical values can stand only once. Like-named read-outs stand apart in the source and are kept apart here.

What was measured:
Cpd 4 Unpublished Target = assay: [3H]-hypoxanthine incorporation assay, Cpd 4 Unpublished Target resistant; type: cell-based; details: Plasmodium falciparum
Procedure: (§1) Supplementary Table 3: Compound 9 and 12 retain their activity against Pf strains harbouring mutations to novel antimalarial agents in clinical development. Compound 9 and 12 were tested for their antiplasmodial activity against a panel of Pf strains known to harbour mutations conferring resistance to novel agents under clinical development. Parasite growth inhibition is measured using the [3H]-hypoxanthine incorporation assay. IC50s are established for each strain (n ≥2) and compared to the IC50 of Dd2 (standard pan-resistant […]

Hepatocyte Clint, rat = type: in vitro ADME; details: for Predicted blood CL: Rat
From the text: (§2) Supplementary Note 5: Prediction of human clearance for compound 12 by IVIVE.
(§3) Human clearance (CL) was predicted by in vitro-in vivo extrapolation (IVIVE) from the in vitro Clint in human hepatocytes6. In vitro Clint was scaled to in vivo Clint as follows:
(§4) Clint in vivo = Clint in vitro * scaling factors * fublood/fuinc
(§5) The liver weights used for scaling were 40, 32 and 24 g/kg body weight in rat, dog and human respectively. Hepatocellularity used for scaling was 163, 169 and 120 (X 106) cells/g liver in rat, dog and human respectively. Free fraction in blood was calculated as fuplasma /Blood:Plasma (BP) ratio. BP ratio and free fraction in the hepatocyte incubation mix, fuinc, were measured in vitro. Slope and intercept from the linear regression analysis of IVIVC for a large number of AstraZeneca compounds was applied for final correction in the scaled in vivo Clint. A well stirred model was used for CL prediction.
(§6) Where Qh is the liver blood flow. The values of Qh in rat, dog and human are 72, 55 and 20 mL.min-1kg-1 in rat, dog and human, respectively. In vitro parameters, observed in vivo CL and predicted CL are shown in supplementary Table 10. […]
(§7) (also on this page, place not known: in vivo in vivo CLintQ CLintQCL Predicted predicted predicted h h + ×=)
(§8) (1 picture or pasted object on this page, not shown here)

PfATP4 Cpd 2 = assay: [3H]-hypoxanthine incorporation assay, PfATP4 Cpd 2 resistant; type: cell-based; details: Plasmodium falciparum
Procedure: as §1

Dd2-6R F2 B5 = assay: SYBR green growth assay, Dd2-6R F2 B5
[1] = set-up: species or system human
From the text: as §2, §3, §4, §5
Where Qh is the liver blood flow. The values of Qh in rat, dog and human are 72, 55 and 20 mL.min-1kg-1 in rat, dog and human, respectively. In vitro parameters, observed in vivo CL and predicted CL are shown in supplementary Table 10.
Prediction of human CL and Vss by rat and dog allometry. Human CL for 12 was also predicted by simple, two species (rat and dog) allometry based on CL and Vss estimates from rat and dog IVPK. The coefficient and exponent from allometry were used for human CL prediction by the Fu corrected intercept method (FCIM)7. CL was predicted as […]
as §7, §8
Where ‘a’ is the coefficient obtained from simple allometric scaling and Rfup is the ratio of free fractions in plasma, fup in rat to fup in human. Vss in human was predicted by simple, rat and dog allometry (supplementary Table 11).
Prediction of human PK profile. The predicted human CL and Vss estimates could be used for predicting human PK with a one compartment distribution. However, rat and dog IVPK profiles indicated a two compartment distribution. Parameters for the two compartment distribution in human were predicted by Wajima transformation8 of rat and dog IVPK […]
CLd, Vt and Vc estimates, assuming similar Ka (0.3/h) and F (0.7) as observed in rats (supplementary Fig. 12 ).
Predicted human PK parameters are shown in supplementary Table 12. Human CL estimates predicted by the FCIM method and IVIVE (3.8 ml/min/kg) were identical. The […]
Human efficacy was predicted after treatment of 70 kg adult with a single 260 mg dose, assuming 2% parasitemia at the onset of treatment and assuming one compartment distribution of 12 in humans (supplementary Fig. 13). Similar efficacy was predicted if 12 was distributed in two compartments.

[2] = test system: Pf male and female gametes; assay: Pf male and female dual gamete assay; details: Plasmodium falciparum, read-out: inhibition in Pf male and female dual gamete assay
[3] = Blood-plasma ratio, human; type: in vitro ADME
From the text: as §2, §3, §4, §5, §6, §7, §8

[4] = 260 mg / 70 kg, two compartment

With `Cc1nc(Nc2ncc(N3CCN(C)[C@H](C)C3)c(Nc3cc(C)n(C)n3)n2)cc(C2CC2)c1F` [compound 12, (R)-N2-(4-cyclopropyl-5-fluoro-6-methylpyridin-2-yl)-N4-(1,5-dimethyl-1H-pyrazol-3-yl)-5-(3,4-dimethylpiperazin-1-yl)pyrimidine-2,4-diamine] the IC50 (Cpd 4 Unpublished Target) was 8.2 nM, the “Predicted blood CL” value (Hepatocyte Clint, rat) was 26 % LBF and the “Predicted blood CL” value (Hepatocyte Clint, rat; IVIVC from hepatocyte Clint) was 18.8 mL/min/kg. The hepatocyte CLint (Hepatocyte Clint, rat; rat, hepatocytes) was 11.3 µL/min/1e6 cells, the IC50 (PfATP4 Cpd 2) was 8.1 nM and the IC50 (Dd2-6R F2 B5; Plasmodium falciparum, DD2) was 81 ± 17.9 nM. The “increase in IC50 compared with the parental Dd2 line” value (Dd2-6R F2 B5; compound 6-resistant Dd2-6R clones (five clones)) was 3-6 fold, the “Predicted human CL” value [1, 4] was 4.33 mL/min/kg and the “Predicted human CLd” value [1, 4] was 20 mL/min/kg. For the same molecule, the “Predicted human Vc” value [1, 4] was 4.0 L/kg, the “Predicted human Vt” value [1, 4] was 7.3 L/kg and the “Human CL predicted by the FCIM method and IVIVE” value ([1]; Human) was 3.8 mL/min/kg. The “Predicted blood CL” value ([1]; Human) was 24 % LBF, the “Predicted blood CL” value ([1]; Human, IVIVE from hepatocyte Clint) was 3.8 mL/min/kg and the “Predicted human F” value ([1]; assumed similar to rats) was 0.7. The “Predicted human Ka” value ([1]; assumed similar to rats) was 0.3 h⁻¹, the “B—predicted mean human plasma Cmax free” value ([1]; human, 260 mg dose) was 8.7 nM and the “predicted half-life in human” value ([1]; human, predicted) was ~ 36 h and 36 h. The “Allometry parameter B (exponent), CL” value ([1]; rat and dog allometry) was 1.08, the “Allometry parameter a (coefficient), CL” value ([1]; rat and dog allometry) was 0.6 and the inhibition at 1 µM [2] was 16.5 ± 6.3%. For the same molecule, the “B:P ratio” value [3] was 1.3.
Work on `Cc1cc(Nc2ncc(N3CCN(C)CC3)c(N3CCCC3)n2)ccn1` [compound 2] yielded a solubility (Solubility) of 830 µM (≈ 293 µg/mL).
